How the values were obtained:
[1] = Urine and fecal excretion of total radioactivity (mass balance); format: in vivo, human; details: 25 mg [14C] oral solution; for total radioactivity recovered (urinary + fecal): 96‐ to 120‐hour collection (day 5) onward
Description: On day 1 of treatment period 2, after an overnight fast of at least 8 hours, each participant received 25 mg [^14C]‐GSK1278863 (≈2.31 MBq; 62.5 μCi) as an oral solution; participants continued to fast for 4 hours after dosing.[15] Blood, urine, and fecal samples were collected for a minimum of 144 hours (up to day 7) after dosing, depending on the amount of radioactivity excreted by each participant in excreta collected daily. Liquid scintillation counting (LSC) was performed on these excreta collections on an ongoing basis to assess recovery of the radioactivity dosed. Participants were discharged if ≥90% and <1% of the dose was excreted on both days 6 and 7.
Urine samples for measurement of total radioactivity excreted in urine were collected before dosing in period 1, then over the time periods 0 to 24, 24 to 48, 48 to 72, 72 to 96, 96 to 120, and 120 to 144 hours in period 2. An aliquot of each 24‐hour urine collection was shipped at ambient temperature to Covance (Harrogate, North Yorkshire, UK) for total radioactivity measurement by LSC. […] Total fecal samples were frozen at −70°C, then shipped on cold gel packs to Covance for total radioactivity measurement by LSC (following homogenization). Aliquots of both urine and fecal homogenates were also sent to GlaxoSmithKline (GSK) for characterization and quantification of metabolites (data not reported). • The following parameters were determined from the urine and fecal radiolabeled drug‐related material (total radioactivity) data: • Absolute amount excreted and percentage excreted in urine (Ae [urine] and Fe% [urine]) within each collection period and cumulative urinary recovery and fraction excreted over the total collection period • Absolute amount excreted and percentage excreted in feces (Ae [fecal] and Fe% [fecal]) with each collection period and cumulative fecal recovery and fraction excreted over the total collection period and cumulatively over the collection period
Total excretion (sum of urine and fecal excretion), Ae [total], and Fe% [total] were calculated by collection interval for each participant. […]

[2] = 39‐week study in monkeys; cited from earlier work
[3] = human; ref internal GSK reports; cited from earlier work

## O=C(O)CNC(=O)C1C(=O)N(C2CCCCC2)C(=O)N(C2CCCCC2)C1=O [Daprodustat]
[1]
  unchanged daprodustat excreted in urine: ≈ 0.5 % of the administered radioactivity
  total radioactivity recovered (urinary + fecal): ≈ 95 % of the administered radioact
[1]; listed as [^14C]‐GSK1278863
  total radioactivity recovered (urinary + fecal): ≈ 95 % of the administered radioactivity
[2]
  doses at which gastric erosions were observed: ≥ 10 mg/kg/day
  no observed adverse effect level: 3 mg/kg/day
[3]
  blood:plasma ratio: 1.23

Reference: PMC9298194, “Clinical Pharmacokinetics of Daprodustat: Results of an Absorption, Distribution, and Excretion Study With Intravenous Microtracer and Concomitant Oral Doses for Bioavailability Determination” (Clinical Pharmacology in Drug Development, 2021)
